Reference: the supplement of paper PMC6315032

Tests used:
Experiment in all cases: apparent dissociation constant (pKDapp, Kinobeads competition, Cheng-Prusoff corrected) (-log10 M); higher = tighter binding
MYLK = MYLK (UniProt Q15746); details: affinity matrix / lysate: Kinobeads, mixed HEK293/K-562/placenta lysate
LYN = LYN (UniProt P07948); details: affinity matrix / lysate: Kinobeads, mixed HEK293/K-562/placenta lysate
CAMK2D = CAMK2D (UniProt Q13557); details: affinity matrix / lysate: Kinobeads, mixed HEK293/K-562/placenta lysate
SIK2 = SIK2 (UniProt Q9H0K1); details: affinity matrix / lysate: Kinobeads, mixed HEK293/K-562/placenta lysate
BRAF = BRAF (UniProt P15056); details: affinity matrix / lysate: Kinobeads, mixed HEK293/K-562/placenta lysate
RPS6KA3 = RPS6KA3 (UniProt P51812); details: affinity matrix / lysate: Kinobeads, mixed HEK293/K-562/placenta lysate
PAK4 = PAK4 (UniProt O96013); details: affinity matrix / lysate: Kinobeads, mixed HEK293/K-562/placenta lysate
PHKG2 = PHKG2 (UniProt P15735); details: affinity matrix / lysate: Kinobeads, mixed HEK293/K-562/placenta lysate
RIOK2 = RIOK2 (UniProt Q9BVS4)
MKNK1 = MKNK1 (UniProt Q9BUB5); details: affinity matrix / lysate: Kinobeads, mixed HEK293/K-562/placenta lysate
MAP2K6 = MAP2K6 (UniProt P52564); details: affinity matrix / lysate: Kinobeads, mixed HEK293/K-562/placenta lysate
STK35 = STK35 (UniProt Q8TDR2); details: affinity matrix / lysate: Kinobeads, mixed HEK293/K-562/placenta lysate
EPHA7 = EPHA7 (UniProt Q15375); details: affinity matrix / lysate: Kinobeads, mixed HEK293/K-562/placenta lysate
MAP4K4 = MAP4K4 (UniProt O95819); details: affinity matrix / lysate: Kinobeads, mixed HEK293/K-562/placenta lysate
MAP2K1 = MAP2K1 (UniProt Q02750); details: affinity matrix / lysate: Kinobeads, mixed HEK293/K-562/placenta lysate
RPS6KA2 = RPS6KA2 (UniProt Q15349); details: affinity matrix / lysate: Kinobeads, mixed HEK293/K-562/placenta lysate
PDIK1L = PDIK1L (UniProt Q8N165); details: affinity matrix / lysate: Kinobeads, mixed HEK293/K-562/placenta lysate
MAPK14 = MAPK14 (UniProt Q16539); details: affinity matrix / lysate: Kinobeads, mixed HEK293/K-562/placenta lysate
BMP2K = BMP2K (UniProt Q9NSY1); details: affinity matrix / lysate: Kinobeads, mixed HEK293/K-562/placenta lysate
PIK3CG = PIK3CG (UniProt P48736); details: affinity matrix / lysate: Lipid Kinobeads, mixed HeLa/Jurkat/K-562 lysate
RPS6KA6 = RPS6KA6 (UniProt Q9UK32); details: affinity matrix / lysate: Kinobeads, mixed HEK293/K-562/placenta lysate
IKBKB = IKBKB (UniProt O14920); details: affinity matrix / lysate: Kinobeads, mixed HEK293/K-562/placenta lysate
NEK9 = NEK9 (UniProt Q8TD19); details: affinity matrix / lysate: Kinobeads, mixed HEK293/K-562/placenta lysate
MAP3K15 = MAP3K15 (UniProt Q6ZN16); details: affinity matrix / lysate: Kinobeads, mixed HEK293/K-562/placenta lysate
MAPK1 = MAPK1 (UniProt P28482); details: affinity matrix / lysate: Kinobeads, mixed HEK293/K-562/placenta lysate
ILK = ILK (UniProt Q13418); details: affinity matrix / lysate: Kinobeads, mixed HEK293/K-562/placenta lysate
MAP3K2 = MAP3K2 (UniProt Q9Y2U5); details: affinity matrix / lysate: Kinobeads, mixed HEK293/K-562/placenta lysate
BRSK2 = BRSK2 (UniProt Q8IWQ3); details: affinity matrix / lysate: Kinobeads, mixed HEK293/K-562/placenta lysate
SYK = SYK (UniProt P43405); details: affinity matrix / lysate: Kinobeads, mixed HEK293/K-562/placenta lysate
PKMYT1 = PKMYT1 (UniProt Q99640); details: affinity matrix / lysate: Kinobeads, mixed HEK293/K-562/placenta lysate
ACVR1B = ACVR1B (UniProt P36896); details: affinity matrix / lysate: Kinobeads, mixed HEK293/K-562/placenta lysate
BMPR1B = BMPR1B (UniProt O00238); details: affinity matrix / lysate: Kinobeads, mixed HEK293/K-562/placenta lysate
MET = MET (UniProt P08581); details: affinity matrix / lysate: Kinobeads, mixed HEK293/K-562/placenta lysate
[1] = affinity matrix / lysate: Kinobeads, mixed HEK293/K-562/placenta lysate
[2] = affinity matrix / lysate: Lipid Kinobeads, mixed HeLa/Jurkat/K-562 lysate

Measured: apparent dissociation constant (-log10 M)

Chain of RIOK2 (Q9BVS4 whole entry, looked up): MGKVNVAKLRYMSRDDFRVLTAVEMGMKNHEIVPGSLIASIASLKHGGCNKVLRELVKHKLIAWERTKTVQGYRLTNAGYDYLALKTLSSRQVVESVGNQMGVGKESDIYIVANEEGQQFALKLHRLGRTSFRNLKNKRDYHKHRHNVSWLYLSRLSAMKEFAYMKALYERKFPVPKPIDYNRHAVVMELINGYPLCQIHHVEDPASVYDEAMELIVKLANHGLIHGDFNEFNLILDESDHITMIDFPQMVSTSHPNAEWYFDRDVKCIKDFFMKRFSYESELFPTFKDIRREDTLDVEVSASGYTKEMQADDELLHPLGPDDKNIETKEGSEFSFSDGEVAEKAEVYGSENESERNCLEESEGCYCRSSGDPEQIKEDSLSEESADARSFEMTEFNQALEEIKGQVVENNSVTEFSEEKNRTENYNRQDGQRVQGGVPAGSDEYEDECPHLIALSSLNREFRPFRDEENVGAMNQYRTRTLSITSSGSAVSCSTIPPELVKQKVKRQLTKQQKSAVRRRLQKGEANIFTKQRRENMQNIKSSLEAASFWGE
Chain of PIK3CG (P48736 whole entry, looked up): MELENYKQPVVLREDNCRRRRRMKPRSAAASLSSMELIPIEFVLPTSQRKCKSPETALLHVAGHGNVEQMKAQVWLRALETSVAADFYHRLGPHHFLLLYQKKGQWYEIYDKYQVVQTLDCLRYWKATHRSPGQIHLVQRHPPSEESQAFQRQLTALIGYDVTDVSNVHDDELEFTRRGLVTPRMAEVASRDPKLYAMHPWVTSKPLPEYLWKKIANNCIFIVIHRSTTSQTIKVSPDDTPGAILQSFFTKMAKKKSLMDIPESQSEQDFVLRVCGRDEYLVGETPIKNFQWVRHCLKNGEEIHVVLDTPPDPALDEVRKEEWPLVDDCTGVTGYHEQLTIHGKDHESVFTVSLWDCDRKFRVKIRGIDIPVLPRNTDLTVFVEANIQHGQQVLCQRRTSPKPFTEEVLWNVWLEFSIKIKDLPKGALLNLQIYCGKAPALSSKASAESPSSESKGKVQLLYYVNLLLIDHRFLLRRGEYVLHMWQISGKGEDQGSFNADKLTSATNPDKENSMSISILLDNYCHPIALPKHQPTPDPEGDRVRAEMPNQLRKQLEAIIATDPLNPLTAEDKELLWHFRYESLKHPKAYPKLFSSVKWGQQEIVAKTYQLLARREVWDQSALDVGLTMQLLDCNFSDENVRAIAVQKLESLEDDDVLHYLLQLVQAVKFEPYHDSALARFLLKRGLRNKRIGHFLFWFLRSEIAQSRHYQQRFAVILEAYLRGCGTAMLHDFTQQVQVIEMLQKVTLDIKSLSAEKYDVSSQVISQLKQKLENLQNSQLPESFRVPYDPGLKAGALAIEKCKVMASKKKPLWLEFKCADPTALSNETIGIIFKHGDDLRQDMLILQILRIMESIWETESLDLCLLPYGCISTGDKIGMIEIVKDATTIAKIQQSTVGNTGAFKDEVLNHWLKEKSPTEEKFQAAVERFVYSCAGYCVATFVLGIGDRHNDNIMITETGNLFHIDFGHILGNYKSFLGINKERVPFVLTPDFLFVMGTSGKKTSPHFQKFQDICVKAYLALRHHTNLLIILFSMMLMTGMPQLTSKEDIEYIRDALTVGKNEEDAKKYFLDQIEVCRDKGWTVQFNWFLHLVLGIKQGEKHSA
Chain of MET (P08581 whole entry): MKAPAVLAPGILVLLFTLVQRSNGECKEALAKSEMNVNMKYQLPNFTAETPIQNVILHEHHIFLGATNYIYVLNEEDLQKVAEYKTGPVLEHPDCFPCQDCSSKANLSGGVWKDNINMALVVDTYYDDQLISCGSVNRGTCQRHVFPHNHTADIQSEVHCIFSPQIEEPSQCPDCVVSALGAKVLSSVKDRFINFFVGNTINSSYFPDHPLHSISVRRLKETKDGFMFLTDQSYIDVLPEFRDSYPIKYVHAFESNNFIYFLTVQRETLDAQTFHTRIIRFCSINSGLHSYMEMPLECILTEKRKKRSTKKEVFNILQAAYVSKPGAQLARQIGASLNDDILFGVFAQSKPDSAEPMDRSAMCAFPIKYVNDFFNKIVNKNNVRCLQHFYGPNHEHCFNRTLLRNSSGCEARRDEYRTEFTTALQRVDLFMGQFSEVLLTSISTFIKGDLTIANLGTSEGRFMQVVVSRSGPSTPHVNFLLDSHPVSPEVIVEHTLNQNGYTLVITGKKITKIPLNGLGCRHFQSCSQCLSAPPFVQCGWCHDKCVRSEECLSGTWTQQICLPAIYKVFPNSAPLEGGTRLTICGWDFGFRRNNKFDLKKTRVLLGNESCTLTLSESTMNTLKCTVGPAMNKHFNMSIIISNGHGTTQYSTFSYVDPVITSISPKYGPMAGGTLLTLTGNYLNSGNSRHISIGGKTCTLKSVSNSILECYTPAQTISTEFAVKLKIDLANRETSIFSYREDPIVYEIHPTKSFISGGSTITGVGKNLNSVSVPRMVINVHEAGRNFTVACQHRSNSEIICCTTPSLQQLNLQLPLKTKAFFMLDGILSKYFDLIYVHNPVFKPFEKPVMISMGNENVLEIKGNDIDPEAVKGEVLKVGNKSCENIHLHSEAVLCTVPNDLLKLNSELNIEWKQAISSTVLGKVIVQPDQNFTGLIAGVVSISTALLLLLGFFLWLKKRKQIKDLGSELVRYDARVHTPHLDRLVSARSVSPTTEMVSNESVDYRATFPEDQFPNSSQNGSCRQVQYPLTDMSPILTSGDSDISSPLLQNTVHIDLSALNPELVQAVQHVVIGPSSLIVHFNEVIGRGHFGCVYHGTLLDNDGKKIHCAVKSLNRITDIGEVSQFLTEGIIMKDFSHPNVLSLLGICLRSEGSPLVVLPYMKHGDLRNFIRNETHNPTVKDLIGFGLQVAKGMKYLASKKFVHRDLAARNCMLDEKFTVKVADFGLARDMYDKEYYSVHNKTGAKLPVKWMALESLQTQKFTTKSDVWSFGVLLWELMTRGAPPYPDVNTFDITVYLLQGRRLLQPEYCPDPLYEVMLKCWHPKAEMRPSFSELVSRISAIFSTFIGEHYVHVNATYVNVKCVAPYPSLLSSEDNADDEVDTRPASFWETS
Chain of RPS6KA6 (Q9UK32 whole entry): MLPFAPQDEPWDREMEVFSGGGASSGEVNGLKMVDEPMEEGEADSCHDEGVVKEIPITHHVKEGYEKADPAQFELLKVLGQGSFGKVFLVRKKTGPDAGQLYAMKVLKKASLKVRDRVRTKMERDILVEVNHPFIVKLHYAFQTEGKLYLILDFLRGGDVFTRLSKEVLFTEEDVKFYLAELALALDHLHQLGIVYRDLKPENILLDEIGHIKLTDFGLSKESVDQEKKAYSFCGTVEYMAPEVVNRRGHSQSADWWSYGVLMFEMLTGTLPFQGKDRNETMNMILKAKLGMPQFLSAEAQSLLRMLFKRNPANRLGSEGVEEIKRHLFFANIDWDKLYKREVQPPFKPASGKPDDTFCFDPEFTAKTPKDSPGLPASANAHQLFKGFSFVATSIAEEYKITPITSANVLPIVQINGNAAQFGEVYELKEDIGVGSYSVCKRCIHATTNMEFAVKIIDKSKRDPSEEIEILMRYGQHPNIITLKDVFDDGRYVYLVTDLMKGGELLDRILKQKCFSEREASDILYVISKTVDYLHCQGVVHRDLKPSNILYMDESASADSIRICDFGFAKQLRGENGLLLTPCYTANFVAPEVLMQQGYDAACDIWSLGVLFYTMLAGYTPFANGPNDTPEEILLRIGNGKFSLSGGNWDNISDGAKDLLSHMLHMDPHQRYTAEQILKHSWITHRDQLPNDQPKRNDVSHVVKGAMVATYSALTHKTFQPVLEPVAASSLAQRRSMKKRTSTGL
Chain of NEK9 (Q8TD19 whole entry): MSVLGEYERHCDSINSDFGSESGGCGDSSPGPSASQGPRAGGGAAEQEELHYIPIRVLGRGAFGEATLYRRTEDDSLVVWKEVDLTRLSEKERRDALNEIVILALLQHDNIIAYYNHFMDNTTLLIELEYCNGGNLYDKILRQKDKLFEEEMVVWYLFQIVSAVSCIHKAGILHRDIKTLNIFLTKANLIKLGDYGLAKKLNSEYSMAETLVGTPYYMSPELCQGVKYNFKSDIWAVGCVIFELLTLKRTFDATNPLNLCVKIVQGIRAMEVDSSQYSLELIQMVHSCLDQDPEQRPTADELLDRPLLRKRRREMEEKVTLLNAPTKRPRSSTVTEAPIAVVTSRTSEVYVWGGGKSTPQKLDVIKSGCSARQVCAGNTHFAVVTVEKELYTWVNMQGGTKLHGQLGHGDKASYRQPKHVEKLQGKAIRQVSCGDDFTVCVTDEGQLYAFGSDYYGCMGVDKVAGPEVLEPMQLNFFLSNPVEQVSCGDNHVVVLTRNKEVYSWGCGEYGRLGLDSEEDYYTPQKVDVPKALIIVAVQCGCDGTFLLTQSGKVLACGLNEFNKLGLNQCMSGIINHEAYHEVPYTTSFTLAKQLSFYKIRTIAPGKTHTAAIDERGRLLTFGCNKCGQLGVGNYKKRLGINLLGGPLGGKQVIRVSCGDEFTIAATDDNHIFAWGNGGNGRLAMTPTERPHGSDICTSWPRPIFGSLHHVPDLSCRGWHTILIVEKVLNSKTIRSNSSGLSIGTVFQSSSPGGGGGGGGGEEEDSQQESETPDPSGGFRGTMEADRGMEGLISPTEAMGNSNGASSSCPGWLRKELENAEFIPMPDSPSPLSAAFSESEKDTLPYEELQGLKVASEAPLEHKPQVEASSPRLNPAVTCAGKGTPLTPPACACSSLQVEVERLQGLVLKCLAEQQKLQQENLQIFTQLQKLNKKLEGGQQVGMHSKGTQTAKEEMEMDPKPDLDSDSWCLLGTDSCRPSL
Chain of MAP2K6 (P52564 whole entry): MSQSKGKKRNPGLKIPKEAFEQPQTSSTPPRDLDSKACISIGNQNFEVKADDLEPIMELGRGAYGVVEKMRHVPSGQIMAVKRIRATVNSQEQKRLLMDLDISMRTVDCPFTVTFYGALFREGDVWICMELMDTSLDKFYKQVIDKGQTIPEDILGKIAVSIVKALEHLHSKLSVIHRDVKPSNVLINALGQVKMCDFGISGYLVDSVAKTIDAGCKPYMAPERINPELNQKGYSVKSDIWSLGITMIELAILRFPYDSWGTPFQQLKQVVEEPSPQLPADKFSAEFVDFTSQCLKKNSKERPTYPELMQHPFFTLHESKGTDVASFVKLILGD

COc1ccc(-c2ccc3c(N4CCOC[C@@H]4C)nc(N4CCOC[C@@H]4C)nc3n2)cc1CO [AZD8055]
< 6: MYLK | LYN | CAMK2D | SIK2 | BRAF | RPS6KA3 | PAK4 | PHKG2 | RIOK2; [1] | RIOK2; [2] | MKNK1 | MAP2K6 | STK35 | EPHA7 | MAP4K4 | MAP2K1 | RPS6KA2 | PDIK1L | MAPK14 | BMP2K | PIK3CG | RPS6KA6 | IKBKB | NEK9 | MAP3K15 | MAPK1 | ILK | MAP3K2 | BRSK2 | SYK | PKMYT1 | ACVR1B | BMPR1B | MET

CCNC(=O)Nc1ccc(-c2nc(N3CCOC[C@@H]3C)c3c(n2)C(C)(C)S(=O)(=O)C3)cc1 [CZ415]
< 6: MYLK | LYN | CAMK2D | SIK2 | BRAF | RPS6KA3 | PAK4 | PHKG2 | RIOK2; [1] | RIOK2; [2] | MKNK1 | MAP2K6 | STK35 | EPHA7 | MAP4K4 | MAP2K1 | RPS6KA2 | PDIK1L | MAPK14 | BMP2K | PIK3CG | RPS6KA6 | IKBKB | NEK9 | MAP3K15 | MAPK1 | ILK | MAP3K2 | BRSK2 | SYK | PKMYT1 | ACVR1B | BMPR1B | MET
